# Source: patent US9505735B2, “Compounds for treating infectious diseases” (Whitehead Institute for Biomedical Research, priority 2012, dated 2016)
# Key:
# [1] = test system: unfolded protein response; assay: Unfolded protein response GFP reporter (UPRE-GFP), flow cytometry; format: cell-based, S. cerevisiae; conditions: 5 hours
# Protocol: Induction of the unfolded protein response in cells carrying a GFP reporter construct was monitored by flow cytometry after exposure to serial dilutions of the indicated compounds for 5 hrs.
# The plasmid pRS304-4XUPRE-GFP was linearized and integrated into the TRP1 locus of S. cerevisiae (W303) to construct a reporter strain as previously described (Cox, et al. (1993) Cell 73, 1197-1206; Pollard, et al. (1998) Mol Cell 1, 171-182). Reporter cells were grown to log phase and exposed to compound at 23° C. for 5 hours before analysis. GFP reporter induction was monitored on a Guava EasyCyte Plus cytometer. The average mean channel fluorescence of duplicate samples was determined, and the experiment was performed twice with similar results.
# Aspergillus terreus = assay: Antifungal susceptibility testing (mold, MIC50/MIC80); format: cell-based
# Protocol: (§1) Sensitivity to gepinacin was determined in 96-well, flat bottom microtiter plates using a modification of the NCCLS broth microdilution protocol CLS M27-A3 and RPMI as culture medium. Fungi were inoculated at ˜10^3 cells per ml and incubated for 48 hours at 37° C. after which plates were sealed, shaken and the optical density read at 600 nm (OD600) on a Tecan Safire 2 plate reader. All samples were run in duplicate or triplicate and assays were repeated at least once. Results are expressed as fraction of growth in the absence of compound and the mean and standard deviation are plotted. For the mold A. terreus, inoculum was 10^4 cells per ml and plates were incubated at 35° C. for 48 hours in the dark. Plates were then visually scored as specified by CLSI document M38-A2 to determine the MIC50 and MIC80.
# [2] = test system: RAW264.7 macrophages co-cultured with treated C. albicans; assay: Macrophage stimulation and TNFα measurement (ELISA); format: cell-based, mouse; conditions: 2 hours co-culture
# Protocol: Cultures of C. albicans Sc5314 cells were drug treated as described for β-glucan staining. After overnight incubation, cultures were washed extensively, counted, and added to cultures of the mouse macrophage cell line RAW264.7 at a macrophage:yeast ratio of 1:2.5 in the continued presence of drug. After 2 hours supernatants were harvested and TNFα concentration measured by ELISA using a kit according to manufacturer's instructions (DY410, R&D Systems).
# Candida glabrata = assay: Antifungal susceptibility testing; format: cell-based
# Protocol: as §1
# S. cerevisiae = assay: Antifungal susceptibility testing; format: cell-based
# Protocol: as §1
# [3] = test system: S. cerevisiae strains deleted for IRE1 or HAC1; assay: Antifungal susceptibility testing of UPR-deficient strains; format: cell-based; conditions: 48 hour
# Protocol: (A) Immunoblots of lysates prepared from S. cerevisiae treated with gepinacin showing GPI-anchor-selective impairment of protein maturation. The unprocessed (u), precursor (p), and mature (m) forms of the reporter proteins are indicated. The identity of the tagged reporter proteins (top of panel) and the antibodies used for their detection (bottom of panel) are also indicated. Treatment conditions are DMSO (0.05%), gepinacin (GPN, 10 μM) or tunicamycin (Tun, 10 μM). The same lysate was used for both blots. […] GFP expression was monitored by flow cytometry. (C) Anti-fungal susceptibility testing of strains deleted for IRE1 (activator of the UPR) or HAC1 (effector of the UPR) showing their increased sensitivity to gepinacin.
# Anti-fungal susceptibility testing of strains bearing deletion of IRE1 (activator of the UPR) or HAC1 (effector of the UPR) using either […] (A) or fluconazole (B). Growth was measured by OD600 after 48 hour exposure to serial dilutions of the compounds as indicated. Results are expressed as a fraction of the OD600 measured in the absence of gepinacin. The mean and standard deviation of triplicate determinations are shown.
# [4] = test system: S. cerevisiae strain Sigma 1278B; assay: Filamentation on solid media; format: cell-based; conditions: 5 μM, 6 days
# Protocol: For liquid assays, C. albicans strains were grown overnight in YPD with DMSO or 5 μM gepinacin. After dilution to an OD600 of 0.1 in Spider media, growth was continued for an additional 3 hours with agitation at 37° C. in the presence of compound before transfer to a 24 well plate for imaging (Shen, et al. (2008) Proc Natl Acad Sci USA 105, 20918-20923). Assays with S. cerevisiae strain Sigma 1278B on solid media were performed as previously described (Liu, et al. (1994) Science 266, 1723-1726) except gepinacin was added directly to partially cooled plate media and colonies were imaged after growth for 6 or 9 days at 30° C.
structure (smiles),measurement,setting,value
COc1ccc(NC(=O)COc2cccc(OCC(C)C)c2)cc1 [gepinacin],activation of the unfolded protein response (GFP reporter),[1],"massive, concentration-dependent activation"
same,growth inhibition,Aspergillus terreus,inhibited the growth
same,TNFα secretion by macrophages,[2],more than doubled
same,growth inhibition,Candida glabrata,inhibited the growth
same,growth inhibition,S. cerevisiae,inhibited the growth
same,change of toxicity by deletion of HAC1 or IRE1,[3],greatly increased the toxicity
same,filamentation on solid media,[4],blocked filamentation
